Measurements taken from BindingDB's records for doi:10.1021/jm990281p (Parke-Davis Pharmaceutical Research, 2000).

Columns and labels:
[1] = molecular target: T1, Gag-Pol polyprotein [489-587] (Human immunodeficiency virus 1, UniProt P04585)
T1 construct: 489-587

[2] = molecular target: T1, Gag-Pol polyprotein [489-587]; experiment: Protease Inhibition Assay
Protocol: (§1) Sensitivity of HIV-1 protease activity to protease inhibitors was determined by a peptide substrate cleavage assay. Protease products were analyzed on a reverse-phase high-pressure liquid chromatograph.

[3] = molecular target: T2, Dimer of Gag-Pol polyprotein [489-587] (Human immunodeficiency virus 1, UniProt P12497); experiment: Protease Inhibition Assay
T2 construct: 489-587
Protocol: as §1

SMILES | Ki [1] [nM] | IC50 [2] [nM] | IC50 ([3]; pH 6.2, 37 °C) [nM] | Ki ([3]; pH 6.2, 37 °C) [nM] | Ki [3] [nM] | IC50 [3] [nM]
Cc1cc(SC2C(=O)CC(CCc3ccc(O)cc3)(C(C)C)OC2=O)c(C(C)(C)C)cc1N (centres undefined) | 0.67 | 2.7 | 2.7 | 0.67 | – | –
Cc1cc(SC2C(=O)CC(CCc3ccc(O)cc3)(C(C)C)OC2=O)c(C(C)(C)C)cc1NS(=O)(=O)c1cccc(C#N)c1 (centres undefined) | 0.21 | – | – | 0.21 | – | –
Cc1cc(SC2C(=O)CC(CCc3ccccc3)(C(C)C)OC2=O)c(C(C)(C)C)cc1NS(C)(=O)=O (centres undefined) | 0.83 | – | – | 0.83 | – | –
Cc1cc(SC2C(=O)CC(CCc3ccccc3)(C(C)C)OC2=O)c(C(C)(C)C)cc1O (centres undefined) | 1.1 | – | – | – | – | –
Cc1cc(SC2C(=O)CC(CCc3ccccc3)(C(C)C)OC2=O)c(C(C)(C)C)cc1OS(=O)(=O)c1ccc(C#N)cc1 (centres undefined) | 0.7 | – | – | – | 0.7 | –
Cc1cc(SC2C(=O)C[C@@](CCc3ccc(O)cc3)(C(C)C)OC2=O)c(C(C)(C)C)cc1OS(C)(=O)=O (some centres undefined) | 0.03 | 2.2 | – | – | 0.03 | –
Cc1cc(SC2C(=O)CC(CCc3ccc(O)cc3)(C(C)C)OC2=O)c(C(C)(C)C)cc1OS(=O)(=O)c1ccccc1 (centres undefined) [5-tert-butyl-4-({4-hydroxy-6-[2-(4-hydroxyphenyl)ethyl]-2-oxo-6-(propan-2-yl)-5,6-dihydro-2H-pyran-3-yl}sulfanyl)-2-methylphenyl benzenesulfonate] | – | 10.4 | – | – | – | 10.4
Cc1cc(SC2C(=O)CC(CCc3ccc(O)cc3)(C(C)C)OC2=O)c(C(C)(C)C)cc1OS(=O)(=O)c1ccccn1 (centres undefined) [5-tert-butyl-4-({4-hydroxy-6-[2-(4-hydroxyphenyl)ethyl]-2-oxo-6-(propan-2-yl)-5,6-dihydro-2H-pyran-3-yl}sulfanyl)-2-methylphenyl pyridine-2-sulfonate] | – | 5 | – | – | – | 5
Cc1cc(SC2C(=O)CC(CCc3ccc(O)cc3)(C(C)C)OC2=O)c(C(C)(C)C)cc1OS(=O)(=O)c1cccs1 (centres undefined) [5-tert-butyl-4-({4-hydroxy-6-[2-(4-hydroxyphenyl)ethyl]-2-oxo-6-(propan-2-yl)-5,6-dihydro-2H-pyran-3-yl}sulfanyl)-2-methylphenyl thiophene-2-sulfonate] | – | 21.8 | – | – | – | 21.8
Cc1cc(SC2C(=O)CC(CCc3ccc(O)cc3)(C3CCCCC3)OC2=O)c(C(C)(C)C)cc1OS(=O)(=O)c1ccccc1 (centres undefined) [5-tert-butyl-4-({6-cyclohexyl-4-hydroxy-6-[2-(4-hydroxyphenyl)ethyl]-2-oxo-5,6-dihydro-2H-pyran-3-yl}sulfanyl)-2-methylphenyl benzenesulfonate] | – | 131 | – | – | – | 130
Cc1cc(SC2C(=O)CC(CCc3ccccc3)(C(C)C)OC2=O)c(C(C)(C)C)cc1OS(=O)(=O)c1ccccn1 (centres undefined) [5-tert-butyl-4-{[4-hydroxy-2-oxo-6-(2-phenylethyl)-6-(propan-2-yl)-5,6-dihydro-2H-pyran-3-yl]sulfanyl}-2-methylphenyl pyridine-2-sulfonate] | – | 6.7 | – | – | – | 6.7
Cc1cc(SC2C(=O)C[C@@](CCc3ccc(O)cc3)(C(C)C)OC2=O)c(C(C)(C)C)cc1N (stereo partly drawn) [(6S)-3-[(4-amino-2-tert-butyl-5-methylphenyl)sulfanyl]-4-hydroxy-6-[2-(4-hydroxyphenyl)ethyl]-6-(propan-2-yl)-5,6-dihydro-2H-pyran-2-one] | 13 | – | – | – | 0.07 | –
Cc1cc(SC2C(=O)CC(CCc3ccccc3)(C(C)C)OC2=O)c(C(C)(C)C)cc1NS(=O)(=O)c1cccc(C#N)c1 (centres undefined) [N-(5-tert-butyl-4-{[4-hydroxy-2-oxo-6-(2-phenylethyl)-6-(propan-2-yl)-5,6-dihydro-2H-pyran-3-yl]sulfanyl}-2-methylphenyl)-3-cyanobenzene-1-sulfonamide] | 1.4 | – | – | 1.4 | – | –
Cc1cc(SC2C(=O)CC(CCc3ccccc3)(C(C)C)OC2=O)c(C(C)(C)C)cc1NS(=O)(=O)c1ccc(C(F)(F)F)cc1 (centres undefined) [N-(5-tert-butyl-4-{[4-hydroxy-2-oxo-6-(2-phenylethyl)-6-(propan-2-yl)-5,6-dihydro-2H-pyran-3-yl]sulfanyl}-2-methylphenyl)-4-(trifluoromethyl)benzene-1-sulfonamide] | 27 | – | – | 27 | – | –
Cc1cc(SC2C(=O)CC(CCc3ccccc3)(C(C)C)OC2=O)c(C(C)(C)C)cc1NS(=O)(=O)c1ccccn1 (centres undefined) [N-(5-tert-butyl-4-{[4-hydroxy-2-oxo-6-(2-phenylethyl)-6-(propan-2-yl)-5,6-dihydro-2H-pyran-3-yl]sulfanyl}-2-methylphenyl)pyridine-2-sulfonamide] | – | 3 | – | – | – | 3
Cc1cc(SC2C(=O)C[C@@](CCc3ccccc3)(C(C)C)OC2=O)c(C(C)(C)C)cc1NS(=O)(=O)c1ccc(C#N)cc1 (stereo partly drawn) [N-(5-tert-butyl-4-{[(6S)-4-hydroxy-2-oxo-6-(2-phenylethyl)-6-(propan-2-yl)-5,6-dihydro-2H-pyran-3-yl]sulfanyl}-2-methylphenyl)-4-cyanobenzene-1-sulfonamide] | 0.2 | 9.1 | – | – | 0.2 | –
Cc1cc(SC2C(=O)C[C@@](CCc3ccccc3)(C(C)C)OC2=O)c(C(C)(C)C)cc1NS(=O)(=O)c1ccc(C(F)(F)F)cn1 (stereo partly drawn) [N-(5-tert-butyl-4-{[(6S)-4-hydroxy-2-oxo-6-(2-phenylethyl)-6-(propan-2-yl)-5,6-dihydro-2H-pyran-3-yl]sulfanyl}-2-methylphenyl)-5-(trifluoromethyl)pyridine-2-sulfonamide] | 6.4 | – | – | – | 0.31 | –
Cc1cc(SC2C(=O)C[C@@](CCc3ccc(O)cc3)(C(C)C)OC2=O)c(C(C)(C)C)cc1NS(=O)(=O)c1ccc(C(F)(F)F)cn1 (stereo partly drawn) [N-(5-tert-butyl-4-{[(6S)-4-hydroxy-6-[2-(4-hydroxyphenyl)ethyl]-2-oxo-6-(propan-2-yl)-5,6-dihydro-2H-pyran-3-yl]sulfanyl}-2-methylphenyl)-5-(trifluoromethyl)pyridine-2-sulfonamide] | 0.39 | – | – | – | 0.39 | –
Cc1cc(SC2C(=O)CC(CCc3ccc(O)cc3)(C(C)C)OC2=O)c(C(C)(C)C)cc1NS(=O)(=O)c1ccc(C(F)(F)F)cc1 (centres undefined) [N-[5-tert-butyl-4-({4-hydroxy-6-[2-(4-hydroxyphenyl)ethyl]-2-oxo-6-(propan-2-yl)-5,6-dihydro-2H-pyran-3-yl}sulfanyl)-2-methylphenyl]-4-(trifluoromethyl)benzene-1-sulfonamide] | – | 18.3 | 18.3 | – | – | –
Cc1cc(SC2C(=O)CC(CCc3ccc(O)cc3)(C(C)C)OC2=O)c(C(C)(C)C)cc1NS(=O)(=O)c1ccc(F)cc1 (centres undefined) [N-[5-tert-butyl-4-({4-hydroxy-6-[2-(4-hydroxyphenyl)ethyl]-2-oxo-6-(propan-2-yl)-5,6-dihydro-2H-pyran-3-yl}sulfanyl)-2-methylphenyl]-4-fluorobenzene-1-sulfonamide] | – | 4.1 | 4.1 | – | – | –
Cc1cc(SC2C(=O)CC(CCc3ccc(O)cc3)(C(C)C)OC2=O)c(C(C)(C)C)cc1NS(=O)(=O)c1ccccn1 (centres undefined) [N-[5-tert-butyl-4-({4-hydroxy-6-[2-(4-hydroxyphenyl)ethyl]-2-oxo-6-(propan-2-yl)-5,6-dihydro-2H-pyran-3-yl}sulfanyl)-2-methylphenyl]pyridine-2-sulfonamide] | – | 2.6 | 2.6 | – | – | –
Cc1cc(SC2C(=O)CC(CCc3ccc(O)cc3)(C(C)C)OC2=O)c(C(C)(C)C)cc1NS(=O)(=O)c1cccs1 (centres undefined) [N-[5-tert-butyl-4-({4-hydroxy-6-[2-(4-hydroxyphenyl)ethyl]-2-oxo-6-(propan-2-yl)-5,6-dihydro-2H-pyran-3-yl}sulfanyl)-2-methylphenyl]thiophene-2-sulfonamide] | – | 8.7 | 8.7 | – | – | –
Cc1cc(SC2C(=O)CC(C)(CCc3ccc(O)cc3)OC2=O)c(C(C)(C)C)cc1NS(=O)(=O)c1ccc(C(F)(F)F)cc1 (centres undefined) [N-[5-tert-butyl-4-({4-hydroxy-6-[2-(4-hydroxyphenyl)ethyl]-6-methyl-2-oxo-5,6-dihydro-2H-pyran-3-yl}sulfanyl)-2-methylphenyl]-4-(trifluoromethyl)benzene-1-sulfonamide] | – | 12.3 | 12.3 | – | – | –
Cc1cc(SC2C(=O)CC(C)(CCc3ccc(O)cc3)OC2=O)c(C(C)(C)C)cc1NS(=O)(=O)c1ccc(Cl)cc1 (centres undefined) [N-[5-tert-butyl-4-({4-hydroxy-6-[2-(4-hydroxyphenyl)ethyl]-6-methyl-2-oxo-5,6-dihydro-2H-pyran-3-yl}sulfanyl)-2-methylphenyl]-4-chlorobenzene-1-sulfonamide] | – | 3.5 | 3.5 | – | – | –
Cc1cc(SC2C(=O)CC(C)(CCc3ccc(O)cc3)OC2=O)c(C(C)(C)C)cc1NS(=O)(=O)c1ccc(F)cc1 (centres undefined) [N-[5-tert-butyl-4-({4-hydroxy-6-[2-(4-hydroxyphenyl)ethyl]-6-methyl-2-oxo-5,6-dihydro-2H-pyran-3-yl}sulfanyl)-2-methylphenyl]-4-fluorobenzene-1-sulfonamide] | – | 3.7 | 3.7 | – | – | –
Cc1cc(SC2C(=O)CC(C)(CCc3ccc(O)cc3)OC2=O)c(C(C)(C)C)cc1NS(=O)(=O)c1ccccc1 (centres undefined) [N-[5-tert-butyl-4-({4-hydroxy-6-[2-(4-hydroxyphenyl)ethyl]-6-methyl-2-oxo-5,6-dihydro-2H-pyran-3-yl}sulfanyl)-2-methylphenyl]benzenesulfonamide] | – | 1.5 | 1.5 | – | – | –
Cc1cc(SC2C(=O)CC(CCc3ccc(O)cc3)(C3CCCC3)OC2=O)c(C(C)(C)C)cc1NS(=O)(=O)c1ccccc1 (centres undefined) [N-[5-tert-butyl-4-({6-cyclopentyl-4-hydroxy-6-[2-(4-hydroxyphenyl)ethyl]-2-oxo-5,6-dihydro-2H-pyran-3-yl}sulfanyl)-2-methylphenyl]benzenesulfonamide] | – | 8.6 | 8.6 | – | – | –
Cc1cc(SC2C(=O)CC(CCc3ccc(O)cc3)(C3CC3)OC2=O)c(C(C)(C)C)cc1NS(=O)(=O)c1ccccc1 (centres undefined) [N-[5-tert-butyl-4-({6-cyclopropyl-4-hydroxy-6-[2-(4-hydroxyphenyl)ethyl]-2-oxo-5,6-dihydro-2H-pyran-3-yl}sulfanyl)-2-methylphenyl]benzenesulfonamide] | – | 3.6 | 3.6 | – | – | –
